Like-named read-outs stand apart in the source and are kept apart here.
Key:
[1] = tested on: cultured human hair follicles; settings: cited from earlier work; for Effect on hair follicle growth in the absence of insulin: IGF-I and IGF-II 0.01-100 ng/ml; for Effect on hair follicle growth in the presence of insulin: 10 micrograms/ml insulin present; for Preventing hair follicles from entering a catagen-like state, compared with insulin / Rate of hair follicle growth compared with 10 micrograms/ml insulin: IGF-I 10 ng/ml, IGF-II 100 ng/ml
[2] = tested on: eyelash hair follicles; assay: Eyelash hair growth / hair follicle transplant after topical application; type: in vivo; settings: insulin alone, no second hypertrichosis agent
Text: Step 4: Apply selected hair growth therapeutic agent if need be such as minoxidil or prostaglandin derived hair growth promoters which are already approved for hair growth of the eyelashes. […] Apply the clean dressing on the wound if need be.
Step 4: Apply selected hair growth therapeutic agent using PGF 2α, and analogues. Using these hair growing prostaglandins after pretreatment of the eye lids site with insulin results in much more rapid hair growth compared to when applied without insulin.

[3] = tested on: indolent ulcers; assay: Local insulin on indolent ulcers, wound healing; type: in vivo; settings: insulin spray on indolent ulcers, unpublished data
Text: We have used insulin for more than a decade to enhance the effectiveness of locally injected therapeutic agents specially cancers with chemotherapeutic agents with remarkable results. Our unpublished data also supports that the insulin spray on indolent ulcers anywhere in the body, including the oral (gums) and nasal cavity. […] Application of insulin soaked cotton swabs (1-3 units in normal saline) after teeth extraction induces rapid healing with reduced pain.

[4] = Text: Discontinue the treatment till it disappears and restart the program. Latisse needs a prescription from a doctor in order to purchase Latisse like you would get any other medication. […] If one develops hypoglycemic symptoms due to any number of reasons, drink a sugar drink, eat a candy, or fruit cocktail.
[5] = tested on: MCF-7 human breast cancer cells; settings: MCF-7 cells; cited from earlier work
[6] = in vivo; cited from earlier work

Substance: Growth hormone: growth hormone (somatotropin)
- Effect on hair follicle growth in the absence of insulin [1]: no effect on hair follicle growth or morphology

Substance: IGF-I: insulin-like growth factor 1, a growth hormone believed to work with androgens to initiate and maintain hair growth
- Effect on hair follicle growth in the presence of insulin [1]: no significant effect on hair follicle growth
- Preventing hair follicles from entering a catagen-like state, compared with insulin [1]: more potent than insulin
- Rate of hair follicle growth compared with 10 micrograms/ml insulin [1]: identical
- Effect on hair follicle growth in the absence of insulin [1]: stimulated hair follicle growth in a dose-dependent manner
- Concentration giving maximum rates of hair follicle growth ([1]; in the absence of insulin): 10 ng/mL

Substance: IGF-II: Insulin-like growth factor II
- Effect on hair follicle growth in the presence of insulin [1]: no significant effect on hair follicle growth
- Preventing hair follicles from entering a catagen-like state, compared with insulin [1]: more potent than insulin
- Rate of hair follicle growth compared with 10 micrograms/ml insulin [1]: unable to stimulate hair follicle growth to the same extent as insulin
- Effect on hair follicle growth in the absence of insulin [1]: stimulated hair follicle growth in a dose-dependent manner
- Concentration giving maximum rates of hair follicle growth ([1]; in the absence of insulin): 100 ng/mL

Substance: Insulin: hormone secreted by beta cells in the islets of Langerhans in the pancreas
- Wound healing, uptake and growth of hair follicle transplant [2]: enough to facilitate rapid wound healing along with uptake and growth of hair follicle transplant
- Wound healing [3]: accelerated wound healing
- Hypoglycemia ([4]; after application of insulin to the eye lids): none of our cases developed hypoglycemia
- Darkening of the eye lids ([4]; insulin alone): did not result in any appreciable darkening of the eye lids
- Increase of the cytotoxic effect of methotrexate [5]: up to 10,000 fold
- Concentration giving maximum rates of hair follicle growth ([1]; follicles maintained in medium containing insulin): 10 micrograms/ml
- Effect of insulin on hair follicle growth ([1]; range of 0.01 to 100 micrograms/ml): stimulated hair follicle growth in a dose-dependent manner

Substance: Regular (R) humulin or novolin: Short-acting insulin
- Duration of action [6]: 5 to 8 h
- Onset of action [6]: 30 to 60 min
- Peak effect [6]: 2 to 5 h

Source: patent US20110217260A1, “METHOD OF ENHANCING EYELASH AND EYE BROW HAIR GROWTH” (priority 2010, published 2011)
